Source: ChEMBL document CHEMBL5465560, “Selectivity Literature for EUbOPEN Chemogenomic Library” (2024)
Each block holds one molecule with its values, some of them ahead of it.

Legend:
[1] = target: Glucocorticoid receptor (Homo sapiens) (UniProt P04150); test: Selectivity interaction (Panel of non-epigenetic targets (kinases, GPCRs, ion channels, and transporters, Eurofins) ) EUB0000271b NR3C1; details: at 1 µM
[2] = target: T1, N-lysine methyltransferase KMT5A (Homo sapiens) (UniProt Q9NQR1); test: Selectivity interaction (Methyltransferase screen (Scintillation proximity assays)) EUB0000255b SETD8
T1 sequence (whole entry): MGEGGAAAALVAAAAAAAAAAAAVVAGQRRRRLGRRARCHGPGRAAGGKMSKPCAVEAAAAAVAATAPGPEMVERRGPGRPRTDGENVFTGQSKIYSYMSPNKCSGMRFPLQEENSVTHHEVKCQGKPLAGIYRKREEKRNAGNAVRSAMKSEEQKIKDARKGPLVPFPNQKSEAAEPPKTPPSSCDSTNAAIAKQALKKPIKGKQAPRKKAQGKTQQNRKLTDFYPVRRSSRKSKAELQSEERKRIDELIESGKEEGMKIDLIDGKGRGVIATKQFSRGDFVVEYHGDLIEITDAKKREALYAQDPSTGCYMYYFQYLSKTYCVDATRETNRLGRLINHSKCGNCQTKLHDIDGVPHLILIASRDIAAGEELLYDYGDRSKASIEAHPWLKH

[3] = target: T2, 3-phosphoinositide-dependent protein kinase 1 (Homo sapiens) (UniProt O15530); test: Selectivity interaction (Kinase panel (literature)) EUB0001199aCl PDPK1; details: at 1 µM
T2 sequence (whole entry): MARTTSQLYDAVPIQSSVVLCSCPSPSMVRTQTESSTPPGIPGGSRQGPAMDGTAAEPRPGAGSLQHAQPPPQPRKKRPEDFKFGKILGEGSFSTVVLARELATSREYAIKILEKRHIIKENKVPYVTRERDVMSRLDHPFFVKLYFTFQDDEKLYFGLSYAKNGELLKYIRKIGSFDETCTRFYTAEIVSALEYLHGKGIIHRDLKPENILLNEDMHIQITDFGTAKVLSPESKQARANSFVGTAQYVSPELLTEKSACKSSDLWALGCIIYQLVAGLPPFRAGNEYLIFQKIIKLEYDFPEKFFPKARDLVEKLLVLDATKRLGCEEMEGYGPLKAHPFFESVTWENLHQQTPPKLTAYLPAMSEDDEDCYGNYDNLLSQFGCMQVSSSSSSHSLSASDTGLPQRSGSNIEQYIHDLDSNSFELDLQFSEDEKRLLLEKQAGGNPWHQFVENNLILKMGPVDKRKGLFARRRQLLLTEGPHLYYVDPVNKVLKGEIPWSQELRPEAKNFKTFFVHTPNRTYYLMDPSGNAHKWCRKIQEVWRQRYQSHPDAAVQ

[4] = target: Cyclin-dependent kinase 3 (Homo sapiens) (UniProt Q00526); test: Selectivity interaction (KinomeScan (DiscoverX)) EUB0000607a CDK3; details: at 10 µM
Cyclin-dependent kinase 3 (Homo sapiens), sequence (Q00526 whole entry, looked up): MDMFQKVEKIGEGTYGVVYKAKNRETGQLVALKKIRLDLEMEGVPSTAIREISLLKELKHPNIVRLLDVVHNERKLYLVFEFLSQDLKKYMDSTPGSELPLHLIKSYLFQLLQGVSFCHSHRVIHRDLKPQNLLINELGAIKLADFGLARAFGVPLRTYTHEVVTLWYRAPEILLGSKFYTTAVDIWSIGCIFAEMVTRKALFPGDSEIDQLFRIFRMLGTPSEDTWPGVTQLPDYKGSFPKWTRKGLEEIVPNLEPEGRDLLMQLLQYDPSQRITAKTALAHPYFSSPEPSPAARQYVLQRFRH

[5] = target: Cyclin-dependent kinase 13 (Homo sapiens, UniProt Q14004); details: at 10 µM
Cyclin-dependent kinase 13, sequence (Q14004 whole entry, looked up): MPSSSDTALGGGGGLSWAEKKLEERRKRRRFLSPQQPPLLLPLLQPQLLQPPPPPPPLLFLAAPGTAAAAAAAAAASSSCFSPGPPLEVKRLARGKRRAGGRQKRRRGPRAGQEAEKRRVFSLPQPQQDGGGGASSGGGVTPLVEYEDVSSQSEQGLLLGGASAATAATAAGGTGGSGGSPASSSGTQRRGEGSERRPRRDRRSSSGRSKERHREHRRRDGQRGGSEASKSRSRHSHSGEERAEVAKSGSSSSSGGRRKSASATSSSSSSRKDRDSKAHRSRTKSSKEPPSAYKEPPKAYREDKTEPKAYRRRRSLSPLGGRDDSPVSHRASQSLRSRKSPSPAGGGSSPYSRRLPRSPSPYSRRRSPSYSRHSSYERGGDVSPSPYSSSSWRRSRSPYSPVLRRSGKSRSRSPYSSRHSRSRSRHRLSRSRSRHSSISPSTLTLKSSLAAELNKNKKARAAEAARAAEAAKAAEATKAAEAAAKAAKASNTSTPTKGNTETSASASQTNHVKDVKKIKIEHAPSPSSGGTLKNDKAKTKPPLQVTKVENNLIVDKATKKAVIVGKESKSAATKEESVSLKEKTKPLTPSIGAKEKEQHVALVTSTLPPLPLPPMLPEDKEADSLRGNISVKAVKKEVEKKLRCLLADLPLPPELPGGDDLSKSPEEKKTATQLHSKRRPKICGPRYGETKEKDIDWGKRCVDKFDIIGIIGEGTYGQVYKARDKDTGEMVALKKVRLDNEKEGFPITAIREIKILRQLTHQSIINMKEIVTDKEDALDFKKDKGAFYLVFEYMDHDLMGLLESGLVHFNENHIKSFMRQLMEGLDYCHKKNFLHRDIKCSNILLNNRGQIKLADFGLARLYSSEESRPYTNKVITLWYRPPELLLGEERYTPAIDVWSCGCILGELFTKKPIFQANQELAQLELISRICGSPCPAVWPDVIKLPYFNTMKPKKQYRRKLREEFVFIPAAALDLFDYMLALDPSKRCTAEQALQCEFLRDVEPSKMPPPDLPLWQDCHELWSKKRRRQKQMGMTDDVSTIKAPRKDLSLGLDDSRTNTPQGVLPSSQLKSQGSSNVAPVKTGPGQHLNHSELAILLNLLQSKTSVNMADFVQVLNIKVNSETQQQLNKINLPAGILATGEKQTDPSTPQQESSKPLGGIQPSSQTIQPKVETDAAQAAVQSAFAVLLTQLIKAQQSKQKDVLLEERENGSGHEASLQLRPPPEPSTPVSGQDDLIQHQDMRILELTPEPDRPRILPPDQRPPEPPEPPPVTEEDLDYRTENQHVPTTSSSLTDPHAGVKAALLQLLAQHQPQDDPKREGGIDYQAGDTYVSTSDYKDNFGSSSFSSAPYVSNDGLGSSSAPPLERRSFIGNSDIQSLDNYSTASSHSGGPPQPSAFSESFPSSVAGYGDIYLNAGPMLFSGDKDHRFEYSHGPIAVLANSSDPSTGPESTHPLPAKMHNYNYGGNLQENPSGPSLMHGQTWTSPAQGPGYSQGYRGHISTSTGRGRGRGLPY

[6] = target: Ribosomal protein S6 kinase alpha-1 (Homo sapiens, UniProt Q15418); test: Selectivity interaction (ActivX KiNativ screen (kinase selectivity in THP-1 cell lysates)) EUB0000639a RPS6KA1; format: subcellular; details: lysate, at 1 µM
[7] = test system: Tyrosine-protein kinase ABL1 (Homo sapiens), P00519 [F317L]; test: Selectivity interaction (KinomeScan (DiscoverX)) EUB0000229b ABL1; details: at 1 µM
Tyrosine-protein kinase ABL1 (Homo sapiens), P00519 [F317L], sequence (P00519 whole entry F317L): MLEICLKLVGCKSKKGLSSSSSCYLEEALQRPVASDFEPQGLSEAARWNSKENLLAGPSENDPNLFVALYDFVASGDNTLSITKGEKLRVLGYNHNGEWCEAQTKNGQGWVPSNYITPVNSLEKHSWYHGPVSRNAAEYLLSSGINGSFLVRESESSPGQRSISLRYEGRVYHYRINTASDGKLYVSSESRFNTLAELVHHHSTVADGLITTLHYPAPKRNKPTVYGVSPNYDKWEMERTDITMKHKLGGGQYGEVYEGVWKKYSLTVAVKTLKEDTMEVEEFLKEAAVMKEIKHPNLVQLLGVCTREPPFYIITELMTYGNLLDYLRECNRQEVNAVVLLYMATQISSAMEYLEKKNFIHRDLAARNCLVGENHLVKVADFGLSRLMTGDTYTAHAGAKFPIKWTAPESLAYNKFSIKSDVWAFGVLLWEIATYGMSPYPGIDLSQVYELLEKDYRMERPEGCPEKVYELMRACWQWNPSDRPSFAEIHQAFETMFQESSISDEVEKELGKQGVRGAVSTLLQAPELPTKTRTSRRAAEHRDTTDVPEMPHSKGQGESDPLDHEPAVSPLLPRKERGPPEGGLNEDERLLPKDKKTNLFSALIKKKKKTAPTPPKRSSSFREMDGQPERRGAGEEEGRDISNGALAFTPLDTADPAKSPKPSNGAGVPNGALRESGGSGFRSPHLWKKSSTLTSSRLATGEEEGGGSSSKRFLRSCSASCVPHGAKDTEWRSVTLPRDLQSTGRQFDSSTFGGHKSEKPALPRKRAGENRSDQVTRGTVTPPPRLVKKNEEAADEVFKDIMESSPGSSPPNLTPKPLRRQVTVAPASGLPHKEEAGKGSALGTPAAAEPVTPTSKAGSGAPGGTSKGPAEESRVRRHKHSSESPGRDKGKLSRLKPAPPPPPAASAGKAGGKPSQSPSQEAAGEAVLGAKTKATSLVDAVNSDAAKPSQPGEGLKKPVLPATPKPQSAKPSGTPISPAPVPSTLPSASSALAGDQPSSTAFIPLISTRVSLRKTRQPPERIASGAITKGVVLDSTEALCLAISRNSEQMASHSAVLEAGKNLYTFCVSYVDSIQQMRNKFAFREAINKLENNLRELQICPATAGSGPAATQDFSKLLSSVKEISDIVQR

[8] = test system: Proto-oncogene tyrosine-protein kinase receptor Ret (Homo sapiens), P07949 [V804M]; test: (§1) Selectivity interaction (KinomeScan (DiscoverX)) EUB0000666a RET; details: at 10 µM
Proto-oncogene tyrosine-protein kinase receptor Ret (Homo sapiens), P07949 [V804M], sequence (P07949 whole entry V804M): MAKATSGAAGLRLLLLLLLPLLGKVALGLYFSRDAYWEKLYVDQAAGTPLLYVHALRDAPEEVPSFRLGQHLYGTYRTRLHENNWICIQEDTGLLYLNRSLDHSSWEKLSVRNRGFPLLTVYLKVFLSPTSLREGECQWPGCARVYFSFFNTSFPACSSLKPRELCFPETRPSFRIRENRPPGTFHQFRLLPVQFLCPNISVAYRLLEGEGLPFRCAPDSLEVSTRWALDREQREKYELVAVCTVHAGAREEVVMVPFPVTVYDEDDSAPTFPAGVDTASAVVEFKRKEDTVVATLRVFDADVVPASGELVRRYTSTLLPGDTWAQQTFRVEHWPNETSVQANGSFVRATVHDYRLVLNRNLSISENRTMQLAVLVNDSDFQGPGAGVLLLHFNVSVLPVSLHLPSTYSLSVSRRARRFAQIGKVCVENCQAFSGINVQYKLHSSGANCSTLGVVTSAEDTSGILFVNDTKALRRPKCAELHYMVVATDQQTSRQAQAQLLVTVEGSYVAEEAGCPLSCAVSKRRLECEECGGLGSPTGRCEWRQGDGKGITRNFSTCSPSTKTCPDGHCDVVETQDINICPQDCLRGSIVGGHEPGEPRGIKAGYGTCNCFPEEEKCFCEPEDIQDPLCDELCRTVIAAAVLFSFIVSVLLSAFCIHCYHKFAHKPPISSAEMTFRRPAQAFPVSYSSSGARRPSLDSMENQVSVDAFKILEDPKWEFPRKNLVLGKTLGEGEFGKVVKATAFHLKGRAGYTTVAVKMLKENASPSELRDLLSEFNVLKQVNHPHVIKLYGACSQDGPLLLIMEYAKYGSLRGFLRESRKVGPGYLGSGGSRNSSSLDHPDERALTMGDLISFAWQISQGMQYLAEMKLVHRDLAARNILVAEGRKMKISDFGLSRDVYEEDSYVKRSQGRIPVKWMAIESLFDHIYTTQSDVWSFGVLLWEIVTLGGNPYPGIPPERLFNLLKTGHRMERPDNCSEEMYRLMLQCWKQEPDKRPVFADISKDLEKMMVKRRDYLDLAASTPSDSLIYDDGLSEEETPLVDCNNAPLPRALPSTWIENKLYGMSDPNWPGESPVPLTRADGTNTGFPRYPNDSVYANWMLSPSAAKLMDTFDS

[9] = test system: Proto-oncogene tyrosine-protein kinase receptor Ret (Homo sapiens), P07949 [V804L]; test: as §1; details: at 10 µM
Proto-oncogene tyrosine-protein kinase receptor Ret (Homo sapiens), P07949 [V804L], sequence (P07949 whole entry V804L): as the sequence (P07949 whole entry V804M) above, with M804L counted along it

[10] = test system: Proto-oncogene tyrosine-protein kinase receptor Ret (Homo sapiens), P07949 [M918T]; test: as §1; details: at 10 µM
Proto-oncogene tyrosine-protein kinase receptor Ret (Homo sapiens), P07949 [M918T], sequence (P07949 whole entry M918T): as the sequence (P07949 whole entry V804M) above, with M804V, M918T counted along it

[11] = target: Proto-oncogene tyrosine-protein kinase receptor Ret (Homo sapiens, UniProt P07949); test: as §1; details: at 10 µM
Proto-oncogene tyrosine-protein kinase receptor Ret, sequence (P07949 whole entry): as the sequence (P07949 whole entry V804M) above, with M804V counted along it

[12] = Selectivity interaction (KinomeScan (DiscoverX)) EUB0000666a CDPK1; details: at 10 µM
[13] = target: T3, Serine/threonine-protein kinase PLK4 (Homo sapiens) (UniProt O00444); test: Selectivity interaction (KinomeScan (DiscoverX)) EUB0000092b PLK4; details: at 10 µM
T3 sequence (whole entry): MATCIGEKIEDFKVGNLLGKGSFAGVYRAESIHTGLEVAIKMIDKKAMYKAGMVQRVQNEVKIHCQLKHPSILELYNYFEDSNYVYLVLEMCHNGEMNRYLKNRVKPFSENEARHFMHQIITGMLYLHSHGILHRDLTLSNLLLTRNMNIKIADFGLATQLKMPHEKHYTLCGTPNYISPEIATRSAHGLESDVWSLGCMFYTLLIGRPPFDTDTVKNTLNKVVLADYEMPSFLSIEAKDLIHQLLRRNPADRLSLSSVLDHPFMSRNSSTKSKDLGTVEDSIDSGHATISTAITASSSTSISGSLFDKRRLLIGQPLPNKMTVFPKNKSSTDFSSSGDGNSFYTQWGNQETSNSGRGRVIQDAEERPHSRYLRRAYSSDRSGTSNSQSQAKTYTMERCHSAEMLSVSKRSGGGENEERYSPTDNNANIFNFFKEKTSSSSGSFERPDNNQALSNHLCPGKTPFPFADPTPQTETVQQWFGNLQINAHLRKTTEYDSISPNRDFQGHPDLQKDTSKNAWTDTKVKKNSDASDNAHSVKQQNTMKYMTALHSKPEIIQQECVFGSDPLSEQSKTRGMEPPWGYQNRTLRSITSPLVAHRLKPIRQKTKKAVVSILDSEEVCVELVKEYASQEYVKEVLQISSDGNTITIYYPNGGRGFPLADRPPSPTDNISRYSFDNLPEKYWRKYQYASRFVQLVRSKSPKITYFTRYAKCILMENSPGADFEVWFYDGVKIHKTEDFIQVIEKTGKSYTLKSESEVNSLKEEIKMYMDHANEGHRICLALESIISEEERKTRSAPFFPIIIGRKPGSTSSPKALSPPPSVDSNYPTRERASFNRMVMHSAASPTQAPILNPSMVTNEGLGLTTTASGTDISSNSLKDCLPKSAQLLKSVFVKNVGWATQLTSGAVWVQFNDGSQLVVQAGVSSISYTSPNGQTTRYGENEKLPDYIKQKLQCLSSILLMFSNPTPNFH

Glucocorticoid receptor (Homo sapiens), sequence (P04150 whole entry): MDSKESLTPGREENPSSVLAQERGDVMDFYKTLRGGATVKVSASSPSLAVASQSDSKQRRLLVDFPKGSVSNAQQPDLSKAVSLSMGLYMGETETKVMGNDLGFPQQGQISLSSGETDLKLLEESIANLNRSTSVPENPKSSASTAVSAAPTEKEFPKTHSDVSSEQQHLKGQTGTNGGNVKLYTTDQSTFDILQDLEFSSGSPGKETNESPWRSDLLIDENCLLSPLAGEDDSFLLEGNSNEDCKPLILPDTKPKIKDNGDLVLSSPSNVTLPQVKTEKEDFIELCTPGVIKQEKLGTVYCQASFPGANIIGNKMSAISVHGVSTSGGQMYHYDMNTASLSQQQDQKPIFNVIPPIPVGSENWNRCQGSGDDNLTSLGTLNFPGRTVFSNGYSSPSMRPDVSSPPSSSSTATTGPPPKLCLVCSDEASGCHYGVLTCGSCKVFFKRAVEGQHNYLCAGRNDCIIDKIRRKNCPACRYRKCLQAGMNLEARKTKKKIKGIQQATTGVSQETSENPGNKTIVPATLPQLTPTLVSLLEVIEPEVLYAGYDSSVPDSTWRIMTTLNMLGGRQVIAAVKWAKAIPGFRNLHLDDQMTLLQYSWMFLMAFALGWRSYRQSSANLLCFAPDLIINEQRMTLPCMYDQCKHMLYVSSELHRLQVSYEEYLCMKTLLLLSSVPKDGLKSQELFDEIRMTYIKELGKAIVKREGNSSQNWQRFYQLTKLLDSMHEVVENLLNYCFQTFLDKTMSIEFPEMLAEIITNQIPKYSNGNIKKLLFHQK

SMILES: Cc1cc(C)cc([C@@H]2c3cc(C)ccc3NC(=O)CN2C(=O)c2ccc(Br)s2)c1
% of inhibition [1]: 15%

SMILES: COCCN1CCC(c2cc(CN(C)C(=O)c3cccc(Oc4ccccc4)c3)ccn2)CC1
% activity ([2]; at 1 µM): > 95%
% activity ([2]; at 10 µM): > 85%

% of inhibition [3]: -4%
SMILES: CN1Cc2nccc(-c3cn(C)nc3-c3ccc(F)cc3)c2C1=O

SMILES: CNC(=O)Nc1ccc(-c2nc(N3CC4CCC(C3)O4)c3cnn(C4CCC5(CC4)OCCO5)c3n2)cc1
% of control [4]: 99%

SMILES: Cc1cc([C@@H](C)Nc2ccccc2C(=O)O)c2nc(N3CCOCC3)cc(=O)n2c1 [AZD-6482]
% of control [5]: 88%

% of inhibition [6]: 5.7%
SMILES: CC[C@@H]1[C@H](F)C(=O)N[C@@H]1COc1nccc2cc(C(N)=O)c(OC)cc12 [ZIMLOVISERTIB]

SMILES: COc1cc(N(C)c2ccnc3ccc(C(F)(F)F)cc23)cc(OC)c1OC
% binding [7]: 90%

SMILES: O=C(NOC[C@H](O)CO)c1ccc(F)c(F)c1Nc1ccc(I)cc1F
% of control [8]: 100%
% of control [9]: 93%
% of control [10]: 79%
% of control [11]: 90%
% of control [12]: 78%

SMILES: CCC(=O)N1CCN(c2ccc(-n3c(=O)ccc4cnc5ccc(-c6cnc7ccccc7c6)cc5c43)cc2C(F)(F)F)CC1
% of control [13]: 100%
